Data: ChEMBL document CHEMBL1154520, “Synthesis and antitumor activity of novel 20s-camptothecin analogues” (Bioorg Med Chem Lett, 2009)
Each block holds one compound with its values, some of them ahead of it.

Legend:
[1] = Chemical stability assessed as half life in PBS at pH 7.4 by HPLC; type: physicochemical
MCF7 = experiment: Cytotoxicity against human MCF7 cells by MTT assay; type: functional, cell-based
HCT-8 [2] = experiment: Cytotoxicity against human HCT8 cells by MTT assay; type: functional, cell-based
PC-3 = experiment: Cytotoxicity against human PC3 cells by MTT assay; type: functional, cell-based
HCT-8 [3] = experiment: Antitumor activity against human HCT8 xenografted in BALB/c nu/nu mouse assessed as change in body weight at 10 mg/kg, ip q3d for 3 days; type: functional; details: route intraperitoneal
HCT-8 [4] = experiment: Antitumor activity against human HCT8 xenografted in BALB/c nu/nu mouse assessed as change in body weight at 20 mg/kg, ip q3d for 3 days; type: functional; details: route intraperitoneal
HCT-8 [5] = experiment: Antitumor activity against human HCT8 xenografted in BALB/c nu/nu mouse assessed as tumor inhibition rate at 10 mg/kg, ip q3d for 3 days; type: functional; details: HCT-8, ip, 72 h, route intraperitoneal
HCT-8 [6] = experiment: Antitumor activity against human HCT8 xenografted in BALB/c nu/nu mouse assessed as tumor inhibition rate at 20 mg/kg, ip q3d for 3 days; type: functional; details: HCT-8, ip, 72 h, route intraperitoneal
Mus musculus [7] = experiment: Toxicity to BALB/c nu/nu mouse assessed as mortality at 10 mg/kg, ip q3d for 3 days; type: organism-based; design: dose 10 mg/kg, route intraperitoneal; details: in vivo, 72 h
Mus musculus [8] = experiment: Toxicity to BALB/c nu/nu mouse assessed as mortality at 20 mg/kg, ip q3d for 3 days; type: organism-based; design: dose 20 mg/kg, route intraperitoneal; details: in vivo, 72 h
HCT-8 [9] = experiment: Antitumor activity against human HCT8 xenografted in BALB/c nu/nu mouse assessed as change in body weight at 5 mg/kg, ip q3d for 3 days; type: functional; details: route intraperitoneal
HCT-8 [10] = experiment: Antitumor activity against human HCT8 xenografted in BALB/c nu/nu mouse assessed as tumor inhibition rate at 5 mg/kg, ip q3d for 3 days; type: functional; details: HCT-8, ip, 72 h, route intraperitoneal
Mus musculus [11] = experiment: Toxicity to BALB/c nu/nu mouse assessed as mortality at 5 mg/kg, ip q3d for 3 days; type: organism-based; design: dose 5 mg/kg, route intraperitoneal; details: in vivo, 72 h

half-life [1]: > 48 h
SMILES: CC[C@@]1(OC(=O)CO)C(=O)OCc2c1cc1n(c2=O)Cc2cc3ccccc3nc2-1
IC50 (MCF7): 10400 nM
IC50 (HCT-8 [2]): 3000 nM
IC50 (PC-3): 30 nM

half-life [1]: 13 h
SMILES: CC[C@@]1(OC(=O)C(C)n2ccnn2)C(=O)OCc2c1cc1n(c2=O)Cc2cc3ccccc3nc2-1 (stereo partly drawn)
IC50 (MCF7): 160 nM
IC50 (HCT-8 [2]): 480 nM
IC50 (PC-3): 590 nM

half-life [1]: 14 h
SMILES: CC[C@@]1(OC(=O)C(C)n2cncn2)C(=O)OCc2c1cc1n(c2=O)Cc2cc3ccccc3nc2-1 (stereo partly drawn)
IC50 (MCF7): 650 nM
IC50 (HCT-8 [2]): 510 nM
IC50 (PC-3): 440 nM

SMILES: CC[C@@]1(OC(=O)Cn2ccnc2)C(=O)OCc2c1cc1n(c2=O)Cc2cc3ccccc3nc2-1
half-life [1]: 24 h
IC50 (MCF7): 900 nM
IC50 (HCT-8 [2]): 600 nM
IC50 (PC-3): 210 nM
Activity (HCT-8 [3]): 6%
Activity (HCT-8 [4]): 1%
inhibition in vivo at 10 mg/kg (HCT-8 [5]): 27.8%
inhibition in vivo at 20 mg/kg (HCT-8 [6]): 46.2%
Activity (Mus musculus [7]): Non-toxic
Activity (Mus musculus [8]): Non-toxic

half-life [1]: 24 h
SMILES: CC[C@@]1(OC(=O)Cn2ccnn2)C(=O)OCc2c1cc1n(c2=O)Cc2cc3ccccc3nc2-1
IC50 (MCF7): 1200 nM
IC50 (HCT-8 [2]): 380 nM
IC50 (PC-3): 160 nM

SMILES: CC[C@@]1(OC(=O)COc2cc(C(F)(F)F)ncn2)C(=O)OCc2c1cc1n(c2=O)Cc2cc3ccccc3nc2-1
half-life [1]: 14 h
IC50 (MCF7): 1790 nM
IC50 (HCT-8 [2]): 1510 nM
IC50 (PC-3): 1340 nM
Activity (HCT-8 [3]): 36%
Activity (HCT-8 [4]): 12%
inhibition in vivo at 10 mg/kg (HCT-8 [5]): 25.4%
inhibition in vivo at 20 mg/kg (HCT-8 [6]): 49.3%
Activity (Mus musculus [7]): Non-toxic
Activity (Mus musculus [8]): Non-toxic

half-life [1]: 9 h
SMILES: CC[C@@]1(OC(=O)C(C)Oc2cc(C(F)(F)F)ncn2)C(=O)OCc2c1cc1n(c2=O)Cc2cc3ccccc3nc2-1 (stereo partly drawn)
IC50 (MCF7): 270 nM
IC50 (HCT-8 [2]): 1110 nM
IC50 (PC-3): 320 nM

SMILES: CC[C@@]1(OC(=O)Cn2cccn2)C(=O)OCc2c1cc1n(c2=O)Cc2cc3ccccc3nc2-1
half-life [1]: > 48 h
IC50 (MCF7): 120 nM
IC50 (HCT-8 [2]): 610 nM
IC50 (PC-3): 160 nM
Activity (HCT-8 [3]): 7%
Activity (HCT-8 [4]): 8%
inhibition in vivo at 10 mg/kg (HCT-8 [5]): 35.3%
inhibition in vivo at 20 mg/kg (HCT-8 [6]): 75.6%
Activity (Mus musculus [7]): Non-toxic
Activity (Mus musculus [8]): Non-toxic

SMILES: CC[C@@]1(OC(=O)C(C)n2cccn2)C(=O)OCc2c1cc1n(c2=O)Cc2cc3ccccc3nc2-1 (stereo partly drawn)
half-life [1]: > 48 h
IC50 (MCF7): 810 nM
IC50 (HCT-8 [2]): 230 nM
IC50 (PC-3): 130 nM
Activity (HCT-8 [3]): -2%
Activity (HCT-8 [4]): -5%
inhibition in vivo at 10 mg/kg (HCT-8 [5]): 77.1%
inhibition in vivo at 20 mg/kg (HCT-8 [6]): 92.9%
Activity (Mus musculus [7]): Non-toxic

SMILES: CC[C@@]1(OC(=O)C(C)O)C(=O)OCc2c1cc1n(c2=O)Cc2cc3ccccc3nc2-1 (stereo partly drawn)
IC50 (MCF7): 560 nM
IC50 (HCT-8 [2]): 820 nM
IC50 (PC-3): 500 nM

half-life [1]: 18 h
SMILES: CC[C@@]1(OC(=O)C(C)n2ccnc2)C(=O)OCc2c1cc1n(c2=O)Cc2cc3ccccc3nc2-1 (stereo partly drawn)
IC50 (MCF7): 110 nM
IC50 (HCT-8 [2]): 590 nM
IC50 (PC-3): 380 nM

half-life [1]: 45 h
SMILES: CC[C@@]1(OC(=O)Cn2cncn2)C(=O)OCc2c1cc1n(c2=O)Cc2cc3ccccc3nc2-1
IC50 (MCF7): 690 nM
IC50 (HCT-8 [2]): 740 nM
IC50 (PC-3): 150 nM

SMILES: CC[C@@]1(OC(=O)C[n+]2cccc(C(C)=O)c2)C(=O)OCc2c1cc1n(c2=O)Cc2cc3ccccc3nc2-1
IC50 (MCF7): 3450 nM
IC50 (HCT-8 [2]): 2580 nM
IC50 (PC-3): 540 nM

SMILES: CC[C@@]1(OC(=O)C[n+]2cccc(C(=O)O)c2)C(=O)OCc2c1cc1n(c2=O)Cc2cc3ccccc3nc2-1
IC50 (MCF7): 2120 nM
IC50 (HCT-8 [2]): 760 nM
IC50 (PC-3): 550 nM

SMILES: CC[C@@]1(OC(=O)C[n+]2cccc(C)c2)C(=O)OCc2c1cc1n(c2=O)Cc2cc3ccccc3nc2-1
IC50 (MCF7): 3760 nM
IC50 (HCT-8 [2]): 3780 nM
IC50 (PC-3): 600 nM

SMILES: CC[C@@]1(OC(=O)C[n+]2cccc(CO)c2)C(=O)OCc2c1cc1n(c2=O)Cc2cc3ccccc3nc2-1
IC50 (MCF7): 2570 nM
IC50 (HCT-8 [2]): 2090 nM
IC50 (PC-3): 800 nM

SMILES: CC[C@@]1(OC(=O)C[n+]2cccc(O)c2)C(=O)OCc2c1cc1n(c2=O)Cc2cc3ccccc3nc2-1
IC50 (MCF7): 3800 nM
IC50 (HCT-8 [2]): 2430 nM
IC50 (PC-3): 110 nM

SMILES: CC[C@@]1(O)C(=O)OCc2c1cc1n(c2=O)Cc2cc3c(CN(C)C)c(O)ccc3nc2-1 [TOPOTECAN]
IC50 (MCF7): 5550 nM
IC50 (HCT-8 [2]): 3660 nM
IC50 (PC-3): 3990 nM
Activity (HCT-8 [9]): -3%
Activity (HCT-8 [3]): -29%
inhibition in vivo at 5 mg/kg (HCT-8 [10]): 62%
inhibition in vivo at 10 mg/kg (HCT-8 [5]): 92.5%
Activity (Mus musculus [11]): Non-toxic
